# What was measured:
# [1] = target: Casein Kinase 2 A1 kinase (Homo sapiens, UniProt P68400); assay: CK2A1 kinase assay (33P, TCA precipitation); type: biochemical
# Description: (§1) Incubation mixtures employed for the Casein Kinase 2 A1 kinase assay contain Casecin Kinase 2 A1 kinase, a synthetic peptide substrate, ATP, ATP-γ-^33 P and a Hepes buffer containing Mg^2+, NaCl, DTT, and Brij-35. Reactions were incubated for 60 minutes at 30° C. and stopped by the addition of trichloroacetic acid (TCA) to a final concentration 8%. TCA precipitates were collected onto GF/C unifilter plates using a Filtermate universal harvester and the filters are quantitated using a TopCount 96/384-well liquid scintillation counter. Dose response curves were generated to determine the concentration required to inhibit 50% of kinase activity (IC50). Compounds were dissolved at 10 mM in dimethyl sulfoxide (DMSO) and evaluated at ten concentrations, each in duplicate. The final concentration of DMSO in the assay is 1.7%. IC50 values were derived by non-linear regression.
# [2] = target: Casein Kinase 2 A2 kinase (Homo sapiens, UniProt P19784); assay: CK2A2 kinase assay (33P, TCA precipitation); type: biochemical
# Description: as §1, with “A2” for “A1”, “Casein” for “Casecin”, “ATP-γ^33P” for “ATP-γ-^33 P”, “Mg^++,” for “Mg^2+,”, “(IC^50).” for “(IC50).”
# Casein Kinase 2 A2 kinase, sequence (P19784 whole entry): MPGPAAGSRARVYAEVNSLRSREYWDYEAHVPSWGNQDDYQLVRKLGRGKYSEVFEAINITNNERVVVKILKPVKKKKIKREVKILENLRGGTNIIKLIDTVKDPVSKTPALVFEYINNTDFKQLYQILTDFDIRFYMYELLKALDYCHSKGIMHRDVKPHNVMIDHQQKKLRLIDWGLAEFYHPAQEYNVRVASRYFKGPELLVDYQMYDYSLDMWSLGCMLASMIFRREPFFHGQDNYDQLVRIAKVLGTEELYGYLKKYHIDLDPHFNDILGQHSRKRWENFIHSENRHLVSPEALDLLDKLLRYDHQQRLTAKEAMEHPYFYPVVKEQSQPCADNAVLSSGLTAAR
# Casein Kinase 2 A1 kinase, sequence (P68400 whole entry): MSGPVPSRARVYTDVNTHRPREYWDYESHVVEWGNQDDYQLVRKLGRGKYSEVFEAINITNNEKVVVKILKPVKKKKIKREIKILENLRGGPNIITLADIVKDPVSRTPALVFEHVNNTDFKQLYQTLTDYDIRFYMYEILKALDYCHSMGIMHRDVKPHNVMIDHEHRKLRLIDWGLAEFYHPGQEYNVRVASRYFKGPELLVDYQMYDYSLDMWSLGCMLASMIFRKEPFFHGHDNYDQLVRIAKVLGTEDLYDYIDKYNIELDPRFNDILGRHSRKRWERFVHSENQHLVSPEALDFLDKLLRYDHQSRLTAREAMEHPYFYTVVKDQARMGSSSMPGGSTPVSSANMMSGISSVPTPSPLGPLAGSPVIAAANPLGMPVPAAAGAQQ
Compound,IC50 [1],IC50 [2]
"CCc1cc(Nc2nc(N3CCC(c4ccccc4F)C3)nn3cccc23)[nH]n1 (centres unmarked) [Example 171, N-(3-Ethyl-1H-pyrazol-5-yl)-2-(3-(2-fluorophenyl)pyrrolidin-1-yl)pyrrolo[1,2-f][1,2,4]triazin-4-amine]",154 nM,11 nM
"Cc1cc(Nc2nc(N3CCCC(c4ccccc4)C3)nn3cccc23)[nH]n1 (centres unmarked) [Example 204, N-(3-methyl-1H-pyrazol-5-yl)-2-(3-phenylpiperidin-1-yl)pyrrolo[1,2-f][1,2,4]triazin-4-amine]",1860 nM,228 nM
"COc1ncccc1C1CCN(c2nc(Nc3cc(C)n[nH]3)c3cccn3n2)C1 (centres unmarked) [Example 213, 2-(3-(2-methoxypyridin-3-yl)pyrrolidin-1-yl)-N-(3-methyl-1H-pyrazol-5-yl)pyrrolo[1,2-f][1,2,4]triazin-4-amine]",349 nM,43 nM
"CC1C[C@@H]1c1cc(Nc2nc(N3CCC(c4cccnc4)C3)nn3cccc23)[nH]n1 (stereo partly drawn) [Example 182, N-(3-((1S,2S)-2-methylcyclopropyl)-1H-pyrazol-5-yl)-2-(3-(pyridin-3-yl)pyrrolidin-1-yl)pyrrolo[1,2-f][1,2,4]triazin-4-amine]",131 nM,13 nM
"2-(3-(2-methoxyphenyl)pyrrolidin-1-yl)-N-(3-methyl-1H-pyrazol-5-yl)pylTolo[1,2-f][1,2,4]triazin-4-amine [Example 176]",872 nM,89 nM
"Cc1cc(Nc2nc(N3CCC(c4ccncc4)CC3)nn3cccc23)[nH]n1 [Example 203, N-(3-methyl-1H-pyrazol-5-yl)-2-(4-(pyridin-4-yl)piperidin-1-yl)pyrrolo[1,2-f][1,2,4]triazin-4-amine]",243 nM,56 nM

# Continued by falling IC50 [1], values first:
IC50 [1],IC50 [2],Compound
6070 nM,1100 nM,"Cc1cc(Nc2nc(N3CCCC3c3cccnc3)nn3cccc23)[nH]n1 (centres unmarked) [Example 209, N-(3-methyl-1H-pyrazol-5-yl)-2-(2-(pyridin-3-yl)pyrrolidin-1-yl)pyrrolo[1,2-f][1,2,4]triazin-4-amine]"
670 nM,91 nM,"c1ccc(-c2cc(Nc3nc(N4CCC(c5cccnc5)C4)nn4cccc34)[nH]n2)cc1 (centres unmarked) [Example 174, N-(3-phenyl-1H-pyrazol-5-yl)-2-(3-(pyridin-3-yl)pyrrolidin-1-yl)pyrrolo[1,2f][1,2,4]triazin-4-amine]"
177 nM,14 nM,"c1ccc(C2CCN(c3nc(Nc4cc(C5CC5)n[nH]4)c4cccn4n3)C2)cc1 (centres unmarked) [Example 184, N-(3-cyclopropyl-1H-pyrazol-5-yl)-2-(3-phenylpyrrolidin-1-yl)pyrrolo[1,2-f][1,2,4]triazin-4-amine]"
159 nM,25 nM,"Cc1cc(Nc2nc(N3Cc4ccccc4C3)nn3cccc23)[nH]n1 [Example 201, 2-(isoindolin-2-yl)-N-(3-methyl-1,2-f][1,2,4]triazin-4-amine]"

# Source: patent publication US7531539B2, “Pyrrolotriazine kinase inhibitors” (Bristol-Myers Squibb Company, priority 2006, dated 2009)
